Values quoted from earlier work, collected in PMC3350394, “Kinetic analysis and test-retest variability of the radioligand [^11C](R)-PK11195 binding to TSPO in the human brain - a PET study in control subjects” (EJNMMI Research, 2012).

How the values were obtained:
dopamine D2/3 receptor = target: dopamine D2/3 receptor; design: method as in PMID 2528555, PMID 8122313; settings: approximately; read-out: affinity; cited from earlier work
[1] = design: method as in PMID 2528555; settings: cited from earlier work
[2] = same experimental setting and analytical approach; cited from earlier work
[3] = design: method as in PMID 2528555; settings: cited from earlier work; remark: listed apart in the source
TSPO [4] = tested on: TSPO; design: method as in PMID 19948230; settings: up; cited from earlier work
TSPO [5] = tested on: TSPO; design: method as in PMID 15103694; settings: unlabelled displacer; cited from earlier work
[6] = tested on: human serum albumin (HSA); design: method as in PMID 12623120; settings: relative to AGP; cited from earlier work
[7] = tested on: alfa1-acid glycoprotein (AGP); design: method as in PMID 12623120; settings: cited from earlier work

For `CCN1CCC[C@H]1CNC(=O)c1c(O)c(Cl)cc(Cl)c1OC` (racemic) [[^11C]raclopride], the Kd (dopamine D2/3 receptor) is listed as 1 to 3 nM.

For `CCN1CCC[C@H]1CNC(=O)c1c(O)c(Cl)cc(Cl)c1O[11CH3]` (racemic) [[^11C]raclopride], the plasma protein binding [1] is listed as 96%, the K1 [2] is listed as 0.16 and the first pass extraction [3] is listed as “about 20%”.

For `COc1ccccc1CN(C(C)=O)c1cnccc1Oc1ccccc1` [PBR28], the “displacement of [11C](R)-PK11195 binding” value (TSPO [4]) is given as 40% to 60.

For `CCC(C)N(C)C(=O)c1cc2ccccc2c(-c2ccccc2Cl)n1` (stereo not drawn) [PK11195, 1-(2-chlorophenyl)-N-methyl-N-(1-methylpropyl)-3-isoquinoline carboxamide], the “displacement of the total [11C]DAA1106 binding” value (TSPO [5]) is given as “about 70%”.

In the case of `CCC(C)N(C)C(=O)c1cc2ccccc2c(-c2ccccc2Cl)n1` (stereo not drawn) [[^3 H]PK11195, 1-(2-chlorophenyl)-N-methyl-N-(1-methylpropyl)-3-isoquinoline carboxamide], the “binding to HSA” value [6] is listed as “to a lesser extent” and the “binding to AGP” value [7] is listed as “high affinity”.

For `CCN1CCC[C@H]1CNC(=O)c1cc(Br)cc(OC)c1O[11CH3]` [[^11C]FLB-457], the K1 [2] is given as 0.42.
